The target of one experiment is T1, human recombinant HDAC1 (Homo sapiens, UniProt Q13547).
T1 construct: purchased Enzo Life Science, Inc. BML-SE456
Briefly: HDAC1 enzyme activity inhibition (HDAC Fluorimetric Drug Discovery Kit). The class given is biochemical. As to conditions: read-out: HDAC1. The gist of the method: (§1)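 Fluorimetric deacetylase read-out. 5-fold compound dilutions; […] enzyme, 10 μM substrate; 30° C, 60 min; developer 30 min.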

A further experiment concerns the target T2, human recombinant HDAC6 (Homo sapiens, UniProt Q9UBN7).
T2 construct: purchased Calbiochem Inc. 382180
T2 sequence (Q9UBN7 1-1215): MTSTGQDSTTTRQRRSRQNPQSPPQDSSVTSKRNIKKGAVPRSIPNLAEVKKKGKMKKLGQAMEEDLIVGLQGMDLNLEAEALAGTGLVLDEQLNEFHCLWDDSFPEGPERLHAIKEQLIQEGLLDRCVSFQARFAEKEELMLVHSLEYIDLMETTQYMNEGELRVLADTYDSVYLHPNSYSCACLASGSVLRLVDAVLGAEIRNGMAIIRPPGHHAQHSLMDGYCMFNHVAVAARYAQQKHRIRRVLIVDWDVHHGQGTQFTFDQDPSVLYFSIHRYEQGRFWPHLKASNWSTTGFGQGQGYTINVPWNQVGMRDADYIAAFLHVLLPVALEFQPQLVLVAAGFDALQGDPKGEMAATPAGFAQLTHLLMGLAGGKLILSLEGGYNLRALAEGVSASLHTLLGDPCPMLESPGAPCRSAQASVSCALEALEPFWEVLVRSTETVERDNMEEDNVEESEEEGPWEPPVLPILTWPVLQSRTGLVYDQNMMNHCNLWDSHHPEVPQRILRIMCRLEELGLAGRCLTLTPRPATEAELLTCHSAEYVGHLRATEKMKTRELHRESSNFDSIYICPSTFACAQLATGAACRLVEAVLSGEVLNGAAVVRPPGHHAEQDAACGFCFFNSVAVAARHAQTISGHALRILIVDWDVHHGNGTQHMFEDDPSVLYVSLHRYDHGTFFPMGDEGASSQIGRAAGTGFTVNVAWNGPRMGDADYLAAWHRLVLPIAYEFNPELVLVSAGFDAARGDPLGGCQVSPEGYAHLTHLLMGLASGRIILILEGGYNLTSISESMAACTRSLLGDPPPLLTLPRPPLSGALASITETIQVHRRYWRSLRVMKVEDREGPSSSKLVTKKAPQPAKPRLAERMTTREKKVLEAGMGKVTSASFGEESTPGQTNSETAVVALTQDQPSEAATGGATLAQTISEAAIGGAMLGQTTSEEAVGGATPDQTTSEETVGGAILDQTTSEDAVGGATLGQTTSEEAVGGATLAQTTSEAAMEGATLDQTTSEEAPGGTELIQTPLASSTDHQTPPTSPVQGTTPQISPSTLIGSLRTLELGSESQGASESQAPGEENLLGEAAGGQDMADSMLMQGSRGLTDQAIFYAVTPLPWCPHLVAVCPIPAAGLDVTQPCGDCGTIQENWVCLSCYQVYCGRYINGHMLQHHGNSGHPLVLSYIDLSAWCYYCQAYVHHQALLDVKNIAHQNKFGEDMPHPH
Briefly: HDAC6 enzyme activity inhibition (HDAC Fluorimetric Drug Discovery Kit). The class given is biochemical. The procedure, abridged: as §1

Where [1] appears, read: human recombinant HDAC1, Fluor de Lys substrate, 30° C. 60 minutes.
[2] abbreviates: human recombinant HDAC6, same protocol as HDAC1.
The mark [3] stands for this setting: human recombinant HDAC1, IC50 calculated with GraphPad Prism.
Where [4] appears, read: human recombinant HDAC6, IC50 calculated with GraphPad Prism.

We go through 19 molecules from patent US20230257372A1 (CHONG KUN DANG PHARMACEUTICAL CORP., priority 2020, published 2023).

pIC50: −log10 of the molar value. Where two headings read alike, the source gives them in different places. Some results are limits rather than exact numbers.

T1 sequence (Q13547 whole entry): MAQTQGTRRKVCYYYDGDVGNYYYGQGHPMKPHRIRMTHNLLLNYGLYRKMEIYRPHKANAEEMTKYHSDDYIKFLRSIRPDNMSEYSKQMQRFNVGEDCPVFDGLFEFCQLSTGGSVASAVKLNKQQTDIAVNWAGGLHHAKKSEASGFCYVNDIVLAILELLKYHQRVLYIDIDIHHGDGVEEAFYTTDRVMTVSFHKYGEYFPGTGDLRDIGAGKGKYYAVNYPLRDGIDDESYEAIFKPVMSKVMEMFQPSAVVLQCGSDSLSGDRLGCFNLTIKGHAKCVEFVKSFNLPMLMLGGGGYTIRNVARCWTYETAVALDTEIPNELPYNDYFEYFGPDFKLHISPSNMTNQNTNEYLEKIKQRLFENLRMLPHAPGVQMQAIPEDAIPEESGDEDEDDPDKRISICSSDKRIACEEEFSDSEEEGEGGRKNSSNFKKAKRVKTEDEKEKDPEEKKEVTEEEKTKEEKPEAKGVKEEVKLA

For `Fc1cc(-c2nnc(C(F)F)o2)ccc1Cn1cc(-c2ccccc2CNC2COC2)nn1` [Compound 4590, N-(2-(1-(4-(5-(difluoromethyl)-1,3,4-oxadiazol-2-yl)-2-fluorobenzyl)-1H-1,2,3-triazol-4-yl)benzyl)oxetan-3-amine], the pIC50 at human recombinant HDAC1 (setting [1]) is < 4.30; at human recombinant HDAC6 (setting [2]), 6.79. Besides, the “HDAC6 selectivity (fold)” value at human recombinant HDAC6 (HDAC6 over HDAC1) was 308 fold.

Turning to `CCN1CCc2cc(-c3cn(Cc4ccc(-c5nnc(C(F)F)o5)cc4F)nn3)ccc2C1` [Compound 4359, 2-(difluoromethyl)-5-(4-((4-(2-ethyl-1,2,3,4-tetrahydroisoquinolin-6-yl)-1H-1,2,3-triazol-1-yl)methyl)-3-fluorophenyl)-1,3,4-oxadiazole], the figures for the pIC50 at human recombinant HDAC1 (setting [3]) and at human recombinant HDAC6 (setting [4]) were < 4.30 and 7.37, respectively. For the same molecule, at human recombinant HDAC6 (HDAC1 IC50 / HDAC6 IC50), the “HDAC6 selectivity (fold)” value was determined as 1182 fold.

For `Fc1cc(-c2nnc(C(F)F)o2)ccc1Cn1cc(-c2ccc(CN3CCCC3)cc2)nn1` [Compound 4521, 2-(difluoromethyl)-5-(3-fluoro-4-((4-(4-(pyrrolidin-1-ylmethyl)phenyl)-1H-1,2,3-triazol-1-yl)methyl)phenyl)-1,3,4-oxadiazole], the figures for the pIC50 on human recombinant HDAC1 (setting [1]) and on human recombinant HDAC6 (setting [2]) were < 4.30 and 7.95, respectively. Moreover, the “HDAC6 selectivity (fold)” value on human recombinant HDAC6 (HDAC6 over HDAC1) was determined as 4464 fold.

With `CCN1CCC(c2cn(Cc3ccc(-c4nnc(C(F)F)o4)cn3)nn2)CC1` [Compound 3807, 2-(difluoromethyl)-5-(6-((4-(1-ethylpiperidin-4-yl)-1H-1,2,3-triazol-1-yl)methyl)pyridin-3-yl)-1,3,4-oxadiazole], the results for the pIC50 on human recombinant HDAC1 (setting [3]) and at human recombinant HDAC6 (setting [4]) were < 4.30 and 6.52, respectively. The “HDAC6 selectivity (fold)” value on human recombinant HDAC6 (HDAC1 IC50 / HDAC6 IC50) worked out at 166 fold.

As to `CC(C)N1CCc2cc(-c3cn(Cc4ccc(-c5nnc(C(F)F)o5)cn4)nn3)ccc2C1` [Compound 4053, 2-(difluoromethyl)-5-(6-((4-(2-isopropyl-1,2,3,4-tetrahydroisoquinolin-6-yl)-1H-1,2,3-triazol-1-yl)methyl)pyridin-3-yl)-1,3,4-oxadiazole], the pIC50 on human recombinant HDAC1 (setting [3]) is < 4.30; at human recombinant HDAC6 (setting [4]), 7.25. For the same molecule, the “HDAC6 selectivity (fold)” value at human recombinant HDAC6 (HDAC1 IC50 / HDAC6 IC50) is 880 fold.

Turning to `CN1CC(N2CCC(c3cccc(-c4cn(Cc5ccc(-c6nnc(C(F)F)o6)cc5F)nn4)c3)CC2)C1` [Compound 4294, 2-(difluoromethyl)-5-(3-fluoro-4-((4-(3-(1-(1-methylazetidin-3-yl)piperidin-4-yl)phenyl)-1H-1,2,3-triazol-1-yl)methyl)phenyl)-1,3,4-oxadiazole], the pIC50 on human recombinant HDAC1 (setting [3]) was < 4.30; at human recombinant HDAC6 (setting [4]) it was 7.20. Besides, the “HDAC6 selectivity (fold)” value on human recombinant HDAC6 (HDAC1 IC50 / HDAC6 IC50) was determined as 791 fold.

As for `Fc1cc(-c2nnc(C(F)F)o2)ccc1Cn1cc(-c2cccc(C3CN(C4CCC4)C3)c2)nn1` [Compound 4507], the pIC50 on human recombinant HDAC1 (setting [1]) was < 4.30; at human recombinant HDAC6 (setting [2]), 7.55. Besides, the “HDAC6 selectivity (fold)” value on human recombinant HDAC6 (HDAC6 over HDAC1) was 1779 fold.

Turning to `Fc1ccc(-c2cn(Cc3ccc(-c4nnc(C(F)F)o4)cc3)nn2)cc1N1CCN(C2CCC2)CC1` [Compound 4422, 2-(4-((4-(3-(4-cyclobutylpiperazin-1-yl)-4-fluorophenyl)-1H-1,2,3-triazol-1-yl)methyl)phenyl)-5-(difluoromethyl)-1,3,4-oxadiazol], the pIC50 at human recombinant HDAC1 (setting [3]) is < 4.30; at human recombinant HDAC6 (setting [4]), 6.41. Further, on human recombinant HDAC6 (HDAC1 IC50 / HDAC6 IC50), the “HDAC6 selectivity (fold)” value was determined as 127 fold.

For `O=c1ccc(-c2cn(Cc3ccc(-c4nnc(C(F)F)o4)cn3)nn2)c[nH]1` [Compound 3845, 5-(1-((5-(5-(difluoromethyl)-1,3,4-oxadiazol-2-yl)pyridin-2-yl)methyl)-1H-1,2,3-triazol-4-yl)pyridin-2(1H)-one], the values for the pIC50 on human recombinant HDAC1 (setting [3]) and on human recombinant HDAC6 (setting [4]) were < 4.30 and 7.79, respectively. Moreover, the “HDAC6 selectivity (fold)” value at human recombinant HDAC6 (HDAC1 IC50 / HDAC6 IC50) came out at 3105 fold.

For the molecule `CN(C)Cc1c(-c2ccccc2)nnn1Cc1ccc(-c2nnc(C(F)F)o2)cc1F` [Compound 4491, 1-(1-(4-(5-(difluoromethyl)-1,3,4-oxadiazol-2-yl)-2-fluorobenzyl)-4-phenyl-1H-1,2,3-triazol-5-yl)-N,N-dimethylmethanamine], the pIC50 on human recombinant HDAC1 (setting [3]) is < 4.30; at human recombinant HDAC6 (setting [4]) it was 6.94. Also, the “HDAC6 selectivity (fold)” value on human recombinant HDAC6 (HDAC1 IC50 / HDAC6 IC50) came out at 433 fold.

For the molecule `FC(F)c1nnc(-c2ccc(Cn3cc(-c4ccc(CNC5COC5)cc4)nn3)nc2)o1` [Compound 4566, N-(4-(1-((5-(5-(difluoromethyl)-1,3,4-oxadiazol-2-yl)pyridin-2-yl)methyl)-1H-1,2,3-triazol-4-yl)benzyl)oxetan-3-amine], the values for the pIC50 on human recombinant HDAC1 (setting [1]) and on human recombinant HDAC6 (setting [2]) were < 4.30 and 7.40, respectively. Besides, the “HDAC6 selectivity (fold)” value at human recombinant HDAC6 (HDAC6 over HDAC1) came to 1256 fold.

With `FC(F)c1nnc(-c2ccc(Cn3cc(-c4cccc(NC5CCOCC5)c4)nn3)cc2)o1` [Compound 4325, N-(3-(1-(4-(5-(difluoromethyl)-1,3,4-oxadiazol-2-yl)benzyl)-1H-1,2,3-triazol-4-yl)phenyl)tetrahydro-2H-pyran-4-amine], the pIC50 at human recombinant HDAC1 (setting [3]) is < 4.30; on human recombinant HDAC6 (setting [4]) it was 7.22. The “HDAC6 selectivity (fold)” value on human recombinant HDAC6 (HDAC1 IC50 / HDAC6 IC50) came to 830 fold.

For the molecule `CN(C)Cc1cc(-c2cn(Cc3ccc(-c4nnc(C(F)F)o4)cc3F)nn2)cs1` [Compound 18188, 1-(4-(1-(4-(5-(difluoromethyl)-1,3,4-oxadiazol-2-yl)-2-fluorobenzyl)-1H-1,2,3-triazol-4-yl)thiophen-2-yl)-N,N-dimethylmethanamine], the pIC50 at human recombinant HDAC1 (setting [1]) is < 4.30; at human recombinant HDAC6 (setting [2]), 7.13. The “HDAC6 selectivity (fold)” value at human recombinant HDAC6 (HDAC6 over HDAC1) was found to be 668 fold.

`Fc1cc(-c2nnc(C(F)F)o2)ccc1Cn1cc(-c2cccc(N3C[C@@H]4C[C@H]3CN4C3CCC3)c2)nn1` [Compound 4319, 2-(4-((4-(3-((1S, 4S)-5-cyclobutyl-2,5-diazabicyclo[2.2.1]heptan-2-yl)phenyl)-1H-1,2,3-triazol-1-yl)methyl)-3-fluorophenyl)-5-(difluoromethyl)-1,3,4-oxadiazole]: the pIC50 at human recombinant HDAC1 (setting [3]) is < 4.30; on human recombinant HDAC6 (setting [4]), 7.47. Besides, at human recombinant HDAC6 (HDAC1 IC50 / HDAC6 IC50), the “HDAC6 selectivity (fold)” value is listed as 1470 fold.

`CC1CCN(Cc2c[nH]c3cc(-c4cn(Cc5ccc(-c6nnc(C(F)F)o6)cc5)nn4)ccc23)CC1` [Compound 4492, 2-(difluoromethyl)-5-(4-((4-(3-((4-methylpiperidin-1-yl)methyl)-1H-indol-6-yl)-1H-1,2,3-triazol-1-yl)methyl)phenyl)-1,3,4-oxadiazole]: the pIC50 is < 4.30 at human recombinant HDAC1 (setting [3]) and 7.82 on human recombinant HDAC6 (setting [4]). Also, the “HDAC6 selectivity (fold)” value at human recombinant HDAC6 (HDAC1 IC50 / HDAC6 IC50) came to 3333 fold.

Consider `CC(C)(C)OC(=O)NC(C)(C)C(=O)Nc1cccc(-c2cn(Cc3ccc(-c4nnc(C(F)F)o4)cn3)nn2)c1` [Compound 4495], for which the pIC50 at human recombinant HDAC1 (setting [3]) is < 4.30; on human recombinant HDAC6 (setting [4]) it was 7.66. Moreover, the “HDAC6 selectivity (fold)” value at human recombinant HDAC6 (HDAC1 IC50 / HDAC6 IC50) is recorded as 2262 fold.

As for `FC1CN(Cc2cccc(-c3cn(Cc4ccc(-c5nnc(C(F)F)o5)cn4)nn3)c2)C1` [Compound 3964, 2-(difluoromethyl)-5-(6-((4-(3-((3-fluoroazetidin-1-yl)methyl)phenyl)-1H-1,2,3-triazol-1-yl)methyl)pyridin-3-yl)-1,3,4-oxadiazole], the figures for the pIC50 at human recombinant HDAC1 (setting [3]) and on human recombinant HDAC6 (setting [4]) were < 4.30 and 7.58, respectively. For the same molecule, at human recombinant HDAC6 (HDAC1 IC50 / HDAC6 IC50), the “HDAC6 selectivity (fold)” value is 1908 fold.

`FC(F)c1nnc(-c2ccc(Cn3cc(-c4cccc(CN5CCC(F)(F)CC5)c4)nn3)cc2)o1` [Compound 4413, 2-(difluoromethyl)-5-(4-((4-(3-((4,4-difluoropiperidin-1-yl)methyl)phenyl)-1H-1,2,3-triazol-1-yl)methyl)phenyl)-1,3,4-oxadiazole]: the pIC50 at human recombinant HDAC1 (setting [3]) was < 4.30; on human recombinant HDAC6 (setting [4]) it was 6.84. Further, at human recombinant HDAC6 (HDAC1 IC50 / HDAC6 IC50), the “HDAC6 selectivity (fold)” value is listed as 348 fold.

Regarding `Fc1cc(-c2nnc(C(F)F)o2)ccc1Cn1cc(-c2ccc(CN3CCC(F)(F)C3)nc2)nn1` [Compound 17775, 2-(difluoromethyl)-5-(4-((4-(6-((3,3-difluoropyrrolidin-1-yl)methyl)pyridin-3-yl)-1H-1,2,3-triazol-1-yl)methyl)-3-fluorophenyl)-1,3,4-oxadiazole], the pIC50 was < 4.30 at human recombinant HDAC1 (setting [1]) and 7.03 at human recombinant HDAC6 (setting [2]). The “HDAC6 selectivity (fold)” value on human recombinant HDAC6 (HDAC6 over HDAC1) amounted to 531 fold.
